Patent publication US7704995B2 (Exelixis, Inc., priority 2003, dated 2010)
pIC50: −log10 of the molar value.

Target: T1, Chk1 (Homo sapiens, UniProt O14757)
T1 construct: purchased Upstate Biotechnology
T1 sequence (O14757 1-476): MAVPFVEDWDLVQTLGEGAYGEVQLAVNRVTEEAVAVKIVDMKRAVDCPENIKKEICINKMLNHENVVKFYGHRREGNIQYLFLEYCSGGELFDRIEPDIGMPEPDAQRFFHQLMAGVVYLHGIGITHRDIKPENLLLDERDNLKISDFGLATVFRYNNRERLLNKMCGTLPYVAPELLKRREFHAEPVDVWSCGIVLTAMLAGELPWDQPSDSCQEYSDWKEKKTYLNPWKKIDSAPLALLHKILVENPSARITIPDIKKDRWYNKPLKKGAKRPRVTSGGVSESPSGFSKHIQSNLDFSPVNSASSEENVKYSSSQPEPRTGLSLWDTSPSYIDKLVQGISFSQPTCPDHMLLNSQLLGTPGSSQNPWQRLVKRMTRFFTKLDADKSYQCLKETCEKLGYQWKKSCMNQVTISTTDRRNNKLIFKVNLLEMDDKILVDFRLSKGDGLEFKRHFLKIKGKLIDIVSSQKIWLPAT
Experiment: Chk1 kinase assay: incorporation of γ-33P ATP into immobilized myelin basic protein
Type: biochemical
Details: Table 11, Chk1 only; class symbols A-D; read-out: Chk1 IC50
Summary of the method: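 Plates coated with MBP, then kinase reactions in Hepes pH 7.6 buffer with 10 mM MgCl2 and 1% DMSO were started by adding unlabeled plus γ-33P ATP (10 μM for Chk1 at 10 nM enzyme; 30 μM for Chk2 at 20 nM enzyme). After 1 h at room temperature, plates were washed and counted.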

Compound | pIC50
Nc1ncc(-c2cccc(CN[C@H]3CCc4ccccc43)c2)nc1-c1nc(C2CCCNC2)cs1 (stereo partly drawn) [Example 824, 5-(3-{[(1S)-2,3-dihydro-1H-inden-1-ylamino]methyl}phenyl)-3-(4-piperidin-3-yl-1,3-thiazol-2-yl)pyrazin-2-amine] | ≤ 5.00
Nc1ncc(-c2cccc(C(=O)NCc3ccc(Cl)cc3Cl)c2)nc1C(=O)N[C@H]1CCNC1 [Example 825, 3-amino-6-[3-({[(2,4-dichlorophenyl)methyl]amino}carbonyl)phenyl]-N-[(3S)-pyrrolidin-3-yl]pyrazine-2-carboxamide] | > 7.30
Nc1ncc(-c2cccc(C(=O)NCc3ccc(Cl)c(Cl)c3)c2)nc1C(=O)N[C@H]1CCNC1 [Example 826, 3-amino-6-[3-({[(3,4-dichlorophenyl)methyl]amino}carbonyl)phenyl]-N-[(3S)-pyrrolidin-3-yl]pyrazine-2-carboxamide] | > 7.30
Nc1ncc(-c2cccc(C(=O)NCc3c(F)cccc3F)c2)nc1-c1nc([C@H]2CCCNC2)n[nH]1 [Example 827, 3-(5-amino-6-{3-[(3S)-piperidin-3-yl]-1H-1,2,4-triazol-5-yl}pyrazin-2-yl)-N-[(2,6-difluorophenyl)methyl]benzamide] | 6.00 to 7.30
Nc1ncc(-c2cccc(C(=O)NCc3c(F)cccc3Cl)c2)nc1-c1nc([C@H]2CCCNC2)n[nH]1 [Example 828, 3-(5-amino-6-{3-[(3S)-piperidin-3-yl]-1H-1,2,4-triazol-5-yl}pyrazin-2-yl)-N-[(2-chloro-6-fluorophenyl)methyl]benzamide] | 6.00 to 7.30
Nc1ncc(-c2cccc(C(=O)NCc3cc(Cl)ccc3Cl)c2)nc1-c1nc([C@H]2CCCNC2)n[nH]1 [Example 829, 3-(5-amino-6-{3-[(3S)-piperidin-3-yl]-1H-1,2,4-triazol-5-yl}pyrazin-2-yl)-N-[(2,5-dichlorophenyl)methyl]benzamide] | 6.00 to 7.30
Nc1ncc(-c2cccc(C(=O)NCc3ccc(Cl)c(Cl)c3)c2)nc1-c1nc([C@H]2CCCNC2)n[nH]1 [Example 830, 3-(5-amino-6-{3-[(3S)-piperidin-3-yl]-1H-1,2,4-triazol-5-yl}pyrazin-2-yl)-N-[(3,4-dichlorophenyl)methyl]benzamide] | > 7.30
COc1ccc(CNC(=O)c2cccc(-c3cnc(N)c(C(=O)N[C@H]4CCCNC4)n3)c2)cc1 [Example 831, 3-amino-6-{3-[({[4-(methyloxy)phenyl]methyl}amino)carbonyl]phenyl}-N-[(3S)-piperidin-3-yl]pyrazine-2-carboxamide] | > 7.30
Nc1ncc(-c2cccc(C(=O)NCc3ccc(Cl)cc3Cl)c2)nc1C(=O)N[C@H]1CCCNC1 [Example 832, 3-amino-6-[3-({[(2,4-dichlorophenyl)methyl]amino}carbonyl)phenyl]-N-[(3S)-piperidin-3-yl]pyrazine-2-carboxamide] | > 7.30
CC(C)(C)OC(=O)NCc1cccc(-c2cnc(N)c(C(=O)N[C@H]3CCCN(C(=O)OC(C)(C)C)C3)n2)c1 [Example 833, 1,1-dimethylethyl (3S)-3-{[(3-amino-6-{3-[({[(1,1-dimethylethyl)oxy]carbonyl}amino)methyl]phenyl}pyrazin-2-yl)carbonyl]amino}piperidine-1-carboxylate] | 6.00 to 7.30
Nc1ncc(-c2cccc(C(=O)NCc3ccccc3F)c2)nc1-c1nnc([C@H]2CCCNC2)[nH]1 [Example 834, 3-(5-amino-6-{5-[(3S)-piperidin-3-yl]-4H-1,2,4-triazol-3-yl}pyrazin-2-yl)-N-[(2-fluorophenyl)methyl]benzamide] | > 7.30
Nc1ncc(-c2cccc(C(=O)NCc3cccc(F)c3)c2)nc1-c1nnc([C@H]2CCCNC2)[nH]1 [Example 835, 3-(5-amino-6-{5-[(3S)-piperidin-3-yl]-4H-1,2,4-triazol-3-yl}pyrazin-2-yl)-N-[(3-fluorophenyl)methyl]benzamide] | > 7.30
Nc1ncc(-c2cccc(C(=O)NCc3ccc(F)cc3)c2)nc1-c1nnc([C@H]2CCCNC2)[nH]1 [Example 836, 3-(5-amino-6-{5-[(3S)-piperidin-3-yl]-4H-1,2,4-triazol-3-yl}pyrazin-2-yl)-N-[(4-fluorophenyl)methyl]benzamide] | > 7.30
Nc1ncc(-c2cccc(C(=O)NCc3cccc(Cl)c3)c2)nc1-c1nnc([C@H]2CCCNC2)[nH]1 [Example 837, 3-(5-amino-6-{5-[(3S)-piperidin-3-yl]-4H-1,2,4-triazol-3-yl}pyrazin-2-yl)-N-[(3-chlorophenyl)methyl]benzamide] | > 7.30
Nc1ncc(-c2cccc(C(=O)NCc3ccc(Cl)cc3)c2)nc1-c1nnc([C@H]2CCCNC2)[nH]1 [Example 838, 3-(5-amino-6-{5-[(3S)-piperidin-3-yl]-4H-1,2,4-triazol-3-yl}pyrazin-2-yl)-N-[(4-chlorophenyl)methyl]benzamide] | > 7.30
NCc1cccc(-c2cnc(N)c(C(=O)N[C@H]3CCCNC3)n2)c1 [Example 839, 3-amino-6-[3-(aminomethyl)phenyl]-N-[(3S)-piperidin-3-yl]pyrazine-2-carboxamide] | > 7.30
Nc1ncc(-c2cccc(O)c2)nc1C(=O)N[C@H]1CCCNC1 [Example 840, 3-amino-6-(3-hydroxyphenyl)-N-[(3S)-piperidin-3-yl]pyrazine-2-carboxamide] | > 7.30
CC(C)(C)OC(=O)N1CCC[C@H](NC(=O)c2nc(-c3cccc(CN)c3)cnc2N)C1 [Example 841, 1,1-dimethylethyl (3S)-3-[({3-amino-6-[3-(aminomethyl)phenyl]pyrazin-2-yl}carbonyl)amino]piperidine-1-carboxylate] | 6.00 to 7.30
Nc1ncc(-c2cccc(C(=O)NCc3ccc(F)cc3)c2)nc1C(=O)N[C@H]1CCCNC1 [Example 842, 3-amino-6-[3-({[(4-fluorophenyl)methyl]amino}carbonyl)phenyl]-N-[(3S)-piperidin-3-yl]pyrazine-2-carboxamide] | > 7.30
Nc1ncc(-c2cccc(C(=O)NCc3ccc(OC(F)(F)F)cc3)c2)nc1C(=O)N[C@H]1CCCNC1 [Example 843, 3-amino-N-[(3S)-piperidin-3-yl]-6-(3-{[({4-[(trifluoromethyl)oxy]phenyl}methyl)amino]carbonyl}phenyl)pyrazine-2-carboxamide] | > 7.30
Nc1ncc(-c2cccc(C(=O)NCc3ccc(-c4ccccc4)cc3)c2)nc1C(=O)N[C@H]1CCCNC1 [Example 844, 3-amino-6-(3-{[(biphenyl-4-ylmethyl)amino]carbonyl}phenyl)-N-[(3S)-piperidin-3-yl]pyrazine-2-carboxamide] | > 7.30
Nc1ncc(-c2cccc(C(=O)NCc3ccc(-c4cnns4)cc3)c2)nc1C(=O)N[C@H]1CCCNC1 [Example 845, 3-amino-N-[(3S)-piperidin-3-yl]-6-{3-[({[4-(1,2,3-thiadiazol-5-yl)phenyl]methyl}amino)carbonyl]phenyl}pyrazine-2-carboxamide] | > 7.30
Nc1ncc(-c2cccc(C(=O)NCc3ccccc3OC(F)(F)F)c2)nc1C(=O)N[C@H]1CCCNC1 [Example 846, 3-amino-N-[(3S)-piperidin-3-yl]-6-(3-{[({2-[(trifluoromethyl)oxy]phenyl}methyl)amino]carbonyl}phenyl)pyrazine-2-carboxamide] | > 7.30
Nc1ncc(-c2cccc(C(=O)NCc3ccccc3-c3ccccc3)c2)nc1C(=O)N[C@H]1CCCNC1 [Example 847, 3-amino-6-(3-{[(biphenyl-2-ylmethyl)amino]carbonyl}phenyl)-N-[(3S)-piperidin-3-yl]pyrazine-2-carboxamide] | > 7.30
Nc1ncc(-c2cccc(C(=O)NCc3ccc(F)cc3F)c2)nc1C(=O)N[C@H]1CCCNC1 [Example 848, 3-amino-6-[3-({[(2,4-difluorophenyl)methyl]amino}carbonyl)phenyl]-N-[(3S)-piperidin-3-yl]pyrazine-2-carboxamide] | > 7.30
Nc1ncc(-c2cccc(C(=O)NCc3ccc(Cl)cc3F)c2)nc1C(=O)N[C@H]1CCCNC1 [Example 849, 3-amino-6-[3-({[(4-chloro-2-fluorophenyl)methyl]amino}carbonyl)phenyl]-N-[(3S)-piperidin-3-yl]pyrazine-2-carboxamide] | > 7.30
Nc1ncc(-c2cccc(C(=O)NCc3ccc(F)c(C(F)(F)F)c3)c2)nc1C(=O)N[C@H]1CCCNC1 [Example 850, 3-amino-6-{3-[({[4-fluoro-3-(trifluoromethyl)phenyl]methyl}amino)carbonyl]phenyl}-N-[(3S)-piperidin-3-yl]pyrazine-2-carboxamide] | > 7.30
Nc1ncc(-c2cccc(C(=O)NCc3ccc4ccccc4c3)c2)nc1C(=O)N[C@H]1CCCNC1 [Example 851, 3-amino-6-(3-{[(naphthalen-2-ylmethyl)amino]carbonyl}phenyl)-N-[(3S)-piperidin-3-yl]pyrazine-2-carboxamide] | > 7.30
CN(C)c1ccc(CNC(=O)c2cccc(-c3cnc(N)c(C(=O)N[C@H]4CCCNC4)n3)c2)cc1 [Example 852, 3-amino-6-{3-[({[4-(dimethylamino)phenyl]methyl}amino)carbonyl]phenyl}-N-[(3S)-piperidin-3-yl]pyrazine-2-carboxamide] | > 7.30
